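How tested: cells in 96-well plates exposed to compound for 48 hours at five concentrations. At the GI50, growth is halved.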 Calls of active or inactive are those of the source. Rule as the data show it: active = GI50 up to about 1.1 µM and inactive = higher.
Experiments:
Test in all cases: NCI tumour cell line growth inhibition, 48 h
[1] = system: SR
[2] = system: MCF7
[3] = system: DU-145
[4] = system: SK-MEL-2
[5] = system: BT-549
[6] = system: SW-620
[7] = system: HCT-116
[8] = system: TK-10
[9] = system: ACHN
[10] = system: RXF 393
[11] = system: COLO 205
[12] = system: MDA-MB-435
[13] = system: IGROV-1
[14] = system: SK-MEL-28
[15] = system: CCRF-CEM
[16] = system: HL-60
[17] = system: NCI-H23
[18] = system: OVCAR-8
[19] = system: EKVX
[20] = system: MOLT-4

Structure (SMILES)	GI50 [1]	GI50 [2]	GI50 [3]	GI50 [4]	GI50 [5]	GI50 [6]	GI50 [7]	GI50 [8]	GI50 [9]	GI50 [10]	GI50 [11]	GI50 [12]	GI50 [13]	GI50 [14]	GI50 [15]	GI50 [16]	GI50 [17]	GI50 [18]	GI50 [19]	GI50 [20]
CC(C)CNC(=O)O	> 100 µM (inactive)	> 100 µM (inactive)	> 100 µM (inactive)	> 100 µM (inactive)	> 100 µM (inactive)	> 100 µM (inactive)	> 100 µM (inactive)	> 100 µM (inactive)	> 100 µM (inactive)	> 100 µM (inactive)	> 100 µM (inactive)	> 100 µM (inactive)	> 100 µM (inactive)	> 100 µM (inactive)	> 100 µM (inactive)	> 100 µM (inactive)	> 100 µM (inactive)	> 100 µM (inactive)	> 100 µM (inactive)	> 100 µM (inactive)
Oc1ccc2ccccc2c1/C=C/c1ccc2c(Br)cc(Br)c(O)c2n1	3.12 µM (inactive)	1.24 µM (inactive)	12 µM (inactive)	8.34 µM (inactive)	12.3 µM (inactive)	4.9 µM (inactive)	2.96 µM (inactive)	11 µM (inactive)	5.6 µM (inactive)	8.61 µM (inactive)	4.86 µM (inactive)	11.8 µM (inactive)	2.17 µM (inactive)	12.8 µM (inactive)	2.38 µM (inactive)	2.87 µM (inactive)	5.96 µM (inactive)	3.57 µM (inactive)	3.11 µM (inactive)	1.59 µM (inactive)
NC(C(F)(F)F)(C(F)(F)F)P(=O)(Cc1ccccc1)Cc1ccccc1	> 100 µM (inactive)	> 100 µM (inactive)	> 100 µM (inactive)	> 100 µM (inactive)	> 100 µM (inactive)	> 100 µM (inactive)	> 100 µM (inactive)	> 100 µM (inactive)	> 100 µM (inactive)	28.9 µM (inactive)	> 100 µM (inactive)	> 100 µM (inactive)	> 100 µM (inactive)	> 100 µM (inactive)	> 100 µM (inactive)	> 100 µM (inactive)	> 100 µM (inactive)	> 100 µM (inactive)	> 100 µM (inactive)	> 100 µM (inactive)
CC1=NN(c2cc(Cl)c(S(=O)(=O)O)cc2Cl)C2(C1)C(Cl)C(=O)N2c1nc2ccccc2s1 (stereo not given)	89.9 µM (inactive)	46.2 µM (inactive)	29.3 µM (inactive)	> 100 µM (inactive)	> 100 µM (inactive)	> 100 µM (inactive)	> 100 µM (inactive)	68.5 µM (inactive)	> 100 µM (inactive)	> 100 µM (inactive)	> 100 µM (inactive)	84.3 µM (inactive)	35 µM (inactive)	> 100 µM (inactive)	30.3 µM (inactive)	> 100 µM (inactive)	91 µM (inactive)	86.9 µM (inactive)	44.9 µM (inactive)	45.6 µM (inactive)
COc1cc2c[n+](C)c3c4cc5c(cc4ccc3c2cc1OC)OCO5 [NITIDINE CHLORIDE]	0.839 µM (active)	1.14 µM (inactive)	2.52 µM (inactive)	2.68 µM (inactive)	6.5 µM (inactive)	1.14 µM (inactive)	5.96 µM (inactive)	29.3 µM (inactive)	71.9 µM (inactive)	12.4 µM (inactive)	1.66 µM (inactive)	> 100 µM (inactive)	1.03 µM (active)	9.38 µM (inactive)	0.752 µM (active)	4.25 µM (inactive)	1.07 µM (active)	1.81 µM (inactive)	1.7 µM (inactive)	0.411 µM (active)

Reference: ChEMBL document CHEMBL1201862, “PubChem BioAssay data set” (2004)
